According to PubChem BioAssay AID1963983 (Molecular Pharmacology Branch, DTP, NCI, 2024):
Blank lines part the entries; values can stand above or below the compound they belong to.

Tested on: 186277-243-T-J2-PDC multi-cell spheroid viability
Assay: Anticancer human tumor 186277-243-T-J2-PDC patient-derived colon adenocarcinoma cell line growth inhibition [PI3K]
Conditions: for IC50: curve of first compound; for viability, T/C: stronger effect = lower value
In short: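 Spheroid viability read-out. Co-cultures contained the tumor line plus HUVEC and human MSCs. Each agent was paired with a PI3K inhibitor (inavolisib, alpelisib, duvelisib, copanlisib) across half-log dilutions starting at clinical Cmax, or at 10 microM when Cmax was unknown.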

[1] = second compound 0.0316 µM, first compound 0.0316 µM
[2] = second compound 0.0316 µM, first compound 0.1 µM
[3] = second compound 0.0316 µM, first compound 0.316 µM
[4] = second compound 0.0316 µM, first compound 1 µM
[5] = second compound 0.1 µM, first compound 0.0316 µM
[6] = second compound 0.1 µM, first compound 0.1 µM
[7] = second compound 0.1 µM, first compound 0.316 µM
[8] = second compound 0.1 µM, first compound 1 µM
[9] = second compound 0.316 µM, first compound 0.0316 µM
[10] = second compound 0.316 µM, first compound 0.1 µM
[11] = second compound 0.316 µM, first compound 0.316 µM
[12] = second compound 0.316 µM, first compound 1 µM
[13] = second compound 1 µM, first compound 0.0316 µM
[14] = second compound 1 µM, first compound 0.1 µM
[15] = second compound 1 µM, first compound 0.316 µM
[16] = second compound 1 µM, first compound 1 µM
[17] = second compound 3.16 µM, first compound 0.0316 µM
[18] = second compound 3.16 µM, first compound 0.1 µM
[19] = second compound 3.16 µM, first compound 0.316 µM
[20] = second compound 3.16 µM, first compound 1 µM
[21] = second compound 10 µM, first compound 0.0316 µM
[22] = second compound 10 µM, first compound 0.1 µM
[23] = second compound 10 µM, first compound 0.316 µM
[24] = second compound 10 µM, first compound 1 µM
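Note: spheroids exposed to compounds for seven days before viability reading.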
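Throughout, for viability, T/C: 100% = DMSO vehicle control viability.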

IC50 (second compound 0.0316 µM): 893 nM | IC50 (second compound 0.1 µM): 603 nM | IC50 (second compound 0.316 µM): 544 nM | IC50 (second compound 1 µM): 262 nM | IC50 (second compound 3.16 µM): 59.7 nM | IC50 (second compound 10 µM): < 31.6 nM
SMILES: CC(C)NCC(C(=O)N1CCN(c2ncnc3c2C(C)CC3O)CC1)c1ccc(Cl)cc1 (centres undefined) + Cc1nc(NC(=O)N2CCCC2C(N)=O)sc1-c1ccnc(C(C)(C)C(F)(F)F)c1
viability, T/C [1]: 115% | viability, T/C [2]: 93% | viability, T/C [3]: 59% | viability, T/C [4]: 54.1% | viability, T/C (second compound 0.0316 µM, first compound 3.16 µM): 31.6% | viability, T/C (second compound 0.0316 µM, first compound 10 µM): 22.5% | viability, T/C [5]: 90.3% | viability, T/C [6]: 92.4% | viability, T/C [7]: 58.6% | viability, T/C [8]: 43.9% | viability, T/C (second compound 0.1 µM, first compound 3.16 µM): 23.5% | viability, T/C (second compound 0.1 µM, first compound 10 µM): 23.9% | viability, T/C [9]: 94.5% | viability, T/C [10]: 80.2% | viability, T/C [11]: 64% | viability, T/C [12]: 36.5% | viability, T/C (second compound 0.316 µM, first compound 3.16 µM): 18% | viability, T/C (second compound 0.316 µM, first compound 10 µM): 14.3% | viability, T/C [13]: 92.5% | viability, T/C [14]: 74.8% | viability, T/C [15]: 45.4% | viability, T/C [16]: 24.7% | viability, T/C (second compound 1 µM, first compound 3.16 µM): 21.4% | viability, T/C (second compound 1 µM, first compound 10 µM): 16.3% | viability, T/C [17]: 56.3% | viability, T/C [18]: 47% | viability, T/C [19]: 25.3% | viability, T/C [20]: 20.3% | viability, T/C (second compound 3.16 µM, first compound 3.16 µM): 10% | viability, T/C (second compound 3.16 µM, first compound 10 µM): 5.7% | viability, T/C [21]: 14.2% | viability, T/C [22]: 13.1% | viability, T/C [23]: 7.49% | viability, T/C [24]: 9.25% | viability, T/C (second compound 10 µM, first compound 3.16 µM): 5.71% | viability, T/C (second compound 10 µM, first compound 10 µM): 3.29%

IC50 (second compound 0.0316 µM): > 1000 nM | IC50 (second compound 0.1 µM): > 1000 nM | IC50 (second compound 0.316 µM): > 1000 nM | IC50 (second compound 1 µM): > 1000 nM | IC50 (second compound 3.16 µM): < 3.16 nM | IC50 (second compound 10 µM): < 3.16 nM
SMILES: CCN1CCN(Cc2ccc(Nc3ncc(F)c(-c4cc(F)c5nc(C)n(C(C)C)c5c4)n3)nc2)CC1 + Cc1nc(NC(=O)N2CCCC2C(N)=O)sc1-c1ccnc(C(C)(C)C(F)(F)F)c1
viability, T/C (second compound 0.0316 µM, first compound 0.00316 µM): 96.7% | viability, T/C (second compound 0.0316 µM, first compound 0.01 µM): 116% | viability, T/C [1]: 107% | viability, T/C [2]: 139% | viability, T/C [3]: 147% | viability, T/C [4]: 137% | viability, T/C (second compound 0.1 µM, first compound 0.00316 µM): 97.4% | viability, T/C (second compound 0.1 µM, first compound 0.01 µM): 93% | viability, T/C [5]: 105% | viability, T/C [6]: 127% | viability, T/C [7]: 145% | viability, T/C [8]: 124% | viability, T/C (second compound 0.316 µM, first compound 0.00316 µM): 97.9% | viability, T/C (second compound 0.316 µM, first compound 0.01 µM): 114% | viability, T/C [9]: 104% | viability, T/C [10]: 103% | viability, T/C [11]: 116% | viability, T/C [12]: 92.5% | viability, T/C (second compound 1 µM, first compound 0.00316 µM): 101% | viability, T/C (second compound 1 µM, first compound 0.01 µM): 90.2% | viability, T/C [13]: 77.9% | viability, T/C [14]: 78.1% | viability, T/C [15]: 74% | viability, T/C [16]: 62.8% | viability, T/C (second compound 3.16 µM, first compound 0.00316 µM): 49.8% | viability, T/C (second compound 3.16 µM, first compound 0.01 µM): 47.5% | viability, T/C [17]: 42.1% | viability, T/C [18]: 37% | viability, T/C [19]: 41.4% | viability, T/C [20]: 28.6% | viability, T/C (second compound 10 µM, first compound 0.00316 µM): 15.8% | viability, T/C (second compound 10 µM, first compound 0.01 µM): 14.2% | viability, T/C [21]: 10.7% | viability, T/C [22]: 9% | viability, T/C [23]: 12.5% | viability, T/C [24]: 12%
